Data from the NIST ThermoML archive (doi:10.1016/j.fluid.2012.01.018).
Numbers after ± are expanded uncertainties.

Settings: 101.33 kPa, Liquid, Falling or rolling sphere viscometry

## COCC[N+]1(C)CCCC1.O=S(=O)([N-]S(=O)(=O)C(F)(F)F)C(F)(F)F
298.15 K
  viscosity: 54.52 ± 1.1 mPa·s
308.15 K
  viscosity: 36.94 ± 0.8 mPa·s
318.15 K
  viscosity: 26.41 ± 0.57 mPa·s
328.15 K
  viscosity: 18.23 ± 0.39 mPa·s
338.15 K
  viscosity: 14.06 ± 0.3 mPa·s
348.15 K
  viscosity: 11.07 ± 0.24 mPa·s

## COCC[N+]1(C)CCOCC1.O=S(=O)([N-]S(=O)(=O)C(F)(F)F)C(F)(F)F
298.15 K
  viscosity: 306.1 ± 19 mPa·s
308.15 K
  viscosity: 155.9 ± 6.4 mPa·s
318.15 K
  viscosity: 90.68 ± 2.5 mPa·s
328.15 K
  viscosity: 57.23 ± 1.2 mPa·s
338.15 K
  viscosity: 38.69 ± 0.84 mPa·s
348.15 K
  viscosity: 27.54 ± 0.6 mPa·s

## COCC[N+]1(C)CCCCC1.O=S(=O)([N-]S(=O)(=O)C(F)(F)F)C(F)(F)F
298.15 K
  viscosity: 102.6 ± 3.1 mPa·s
308.15 K
  viscosity: 63.22 ± 1.4 mPa·s
318.15 K
  viscosity: 41.92 ± 0.91 mPa·s
328.15 K
  viscosity: 29.43 ± 0.64 mPa·s
338.15 K
  viscosity: 21.53 ± 0.46 mPa·s
348.15 K
  viscosity: 16.32 ± 0.35 mPa·s
